Experimental data published in patent US20250009819A1, “NOVEL PROBIOTICS AND USE THEREOF” (PBLBIOLAB CO., LTD., priority 2021, published 2025).

Tests used:
[1] = tested on: animals with antibiotic-induced gut microbiota imbalance; experiment: Animals with antibiotic (ampicillin)-induced gut microbiota imbalance: colitis improvement (colon); assay type: in vivo, C57BL/6 male mice; conditions: ampicillin (AP)-treated mice, 1×10^9 CFU/mouse orally once a day for 5 days
Experimental: To 100 mg of colon tissue, 200 μl of 10 mM potassium phosphate buffer (pH 7.0) containing 0.5% hexadecyl trimethyl ammonium bromide was added and homogenized. Then, the supernatant was obtained by centrifugation for 10 minutes at 4° C. and 10,000 g. A volume of 50 μl of the supernatant was added to 0.95 mk of reaction solution (containing 1.6 mM tetramethyl benzidine and 0.1 mM H2O2), reacted at 37° C., and absorbance was monitored over time at 650 nm.
(§1) Hippocampus, colon, and spleen tissues were homogenized by adding 1 ml of RIPA buffer (Gibco) containing protease inhibitor cocktail and centrifuged at 4° C., 13000 rpm for 15 min to obtain supernatant. Indicators of this supernatant were measured using an ELISA kit (Ebioscience).
C57BL/6 male mice (5 weeks old, 19-21 g) were divided (6 mice in each group) and acclimatized to the laboratory for 1 week. To induce intestinal and brain diseases, the mice were orally administered with ampicillin (AP, 100 mg/kg, dissolved in physiological saline) for 3 days. Meanwhile, the normal group was orally administered with 0.1 ml of physiological saline. […] The day following the conclusion of sample administration, the experimental animals were sacrificed, and samples from the brain hippocampus, colon, and spleen were collected. In the Hippocampus, inflammatory indicators, such as IFN-γ, TNF-α, and IL-10, were measured using ELISA. In the colon, intestinal length and inflammatory indicators, such as IFN-γ, TNF-α, and IL-10, were measured. In the spleen, Th1 cells and Treg cells were measured by FACS (Fluorescence-Activated Cell Sorting), and in feces, endotoxin (LPS) and gut microbial communities were measured.

[2] = tested on: immunosuppressed animals induced by anticancer drug (cyclophosphamide); experiment: Immunosuppressed animals induced by cyclophosphamide: cognitive improvement, hippocampus indicators; assay type: in vivo, C57BL/6 male mice; conditions: cyclophosphamide (CP)-treated mice, 1×10^9 CFU/mouse orally once a day for 5 days; for IFN-γ/IL-10 / IL-10 / Interferon (IFN)-γ / TNF-a/IL-10 / TNF-α: hippocampus
Experimental: as §1
The Y-shaped maze measurement device is shaped like an alphabetical Y with three arms extending from it, each arm being 25 cm long, 14 cm high, 5 cm wide, and positioned at the same angle. At the end of one arm of the Y-shaped maze, the animal was placed with its head facing out and allowed to freely navigate the arm for 8 minutes. The animal's movements were recorded, and reported as arm entries when the animal entered the arm with its hind paw, and the animal's movement was represented by an alternation, which was defined as one alternation when the animal passed through the three arms in succession. The amount of spontaneous alternation behavior was expressed as a percentage between the actual number of alternations and the maximum possible number of alternations (i.e., the total number of […] minus 2).
The experiment was conducted in a box (40×40×40 cm) made so that the outside could not be seen from the inside. Two objects (A, A′) of the same shape and size were fixedly disposed in a box and the mouse was relocated to start from the center of the box. Then, the number of times the mouse made contact with the two objects was recorded for 10 minutes. After 24 hours, one of the two objects was replaced with a new object (A, B). Then, one original object and one new object were prepared, and the animal's exploration time was measured.
C57BL/6 male mice (5 weeks old, 19-21 g) were divided (6 mice in each group) and acclimatized to the laboratory for 1 week. To induce intestinal and brain diseases, the mice were administered with cyclophosphamide (CP, 150 mg/kg, dissolved in physiological saline) for 1 day, rested for 1 day, and then administered intraperitoneally the next day. Meanwhile, the normal group was administered intraperitoneally with 0.1 ml of physiological saline. […] The day following the conclusion of sample administration, the experimental animals were sacrificed, and samples from the brain hippocampus, colon, and spleen were collected. In the Hippocampus, inflammatory indicators, such as IFN-γ, TNF-α, and IL-10, were measured using ELISA. In the colon, intestinal length and inflammatory indicators, such as IFN-γ, TNF-α, and IL-10, were measured. In the spleen, Th1 cells and Treg cells were measured by FACS (Fluorescence-Activated Cell Sorting).

Substance | Colon (cm) [1] [cm] | IFN-γ/IL-10 [1] | IL-10 [1] [pg/mg] | Interferon (IFN)-γ [1] [pg/mg] | MPO activity [1] [μUnit/mg] | TNF-a/IL-10 [1] | TNF-α [1] [pg/mg] | Exoporation (%) (in NOR task) [2] | Spontaneous alteration (%) (in Y-maze task) [2] | IFN-γ/IL-10 [2] | IL-10 [2] [pg/mg] | Interferon (IFN)-γ [2] [pg/mg] | TNF-a/IL-10 [2] | TNF-α [2] [pg/mg]
Bifidobacterium longum NK219 | 5.45 | 0.26 | 26.75 | 5.84 | 14.76 | 1.16 | 28.27 | 78.34 | 71.26 | 0.44 | 53.74 | 23.48 | 0.20 | 10.91
Lactobacillus rhamnosus NK210 | 5.28 | 0.31 | 21.31 | 5.94 | 11.60 | 1.43 | 22.86 | 78.71 | 70.94 | 0.59 | 43.29 | 25.30 | 0.24 | 10.44
